Assay results taken from ChEMBL document CHEMBL2021770, “Potent and Selective Inhibitors of Long Chain l-2-Hydroxy Acid Oxidase Reduced Blood Pressure in DOCA Salt-Treated Rats” (ACS Med Chem Lett, 2011).
Active and inactive are the calls of the source. The rule behind the calls is not given here.

Assays:
2-Hydroxyacid oxidase 2 = biological target: T1, 2-Hydroxyacid oxidase 2 (Rattus norvegicus, UniProt Q07523); assay: Inhibition of rat His6-tagged Hao2 expressed in Escherichia coli BL21/DE3 using 2-hydroxyoctanoic acid as substrate measured every 10 secs by spectrophotometry
T1 sequence (Q07523 whole entry): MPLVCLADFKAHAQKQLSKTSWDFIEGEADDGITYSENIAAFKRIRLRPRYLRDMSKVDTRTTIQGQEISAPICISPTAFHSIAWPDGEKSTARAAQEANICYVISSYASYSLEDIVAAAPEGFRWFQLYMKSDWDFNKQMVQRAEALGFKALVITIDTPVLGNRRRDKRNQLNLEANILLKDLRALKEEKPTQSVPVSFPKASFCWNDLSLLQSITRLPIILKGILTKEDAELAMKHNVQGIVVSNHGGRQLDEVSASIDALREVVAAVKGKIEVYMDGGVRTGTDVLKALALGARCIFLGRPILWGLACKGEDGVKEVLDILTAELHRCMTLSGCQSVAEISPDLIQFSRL

2-Hydroxyacid oxidase 1 = biological target: T2, 2-Hydroxyacid oxidase 1 (Rattus norvegicus, UniProt B0BNF9); assay: Inhibition of rat His6-tagged Hao1 expressed in Escherichia coli BL21/DE3 using glcolic acid as substrate measured every 10 secs by spectrophotometry
T2 sequence (B0BNF9 whole entry): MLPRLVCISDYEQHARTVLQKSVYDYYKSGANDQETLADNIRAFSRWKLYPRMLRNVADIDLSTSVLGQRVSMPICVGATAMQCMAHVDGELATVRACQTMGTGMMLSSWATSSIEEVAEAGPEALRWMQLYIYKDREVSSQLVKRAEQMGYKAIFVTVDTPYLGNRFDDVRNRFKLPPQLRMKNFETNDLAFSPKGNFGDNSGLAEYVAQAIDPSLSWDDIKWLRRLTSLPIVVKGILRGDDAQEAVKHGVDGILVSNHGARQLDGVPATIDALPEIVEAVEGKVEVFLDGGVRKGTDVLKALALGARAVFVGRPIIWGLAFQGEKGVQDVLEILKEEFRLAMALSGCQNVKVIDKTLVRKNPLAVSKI

[1] = biological target: Hydroxycarboxylic acid receptor 2 (Homo sapiens) (UniProt Q8TDS4); assay: Agonist activity at human GPR109a at 10 uM; type: functional
Cytochrome P450 3A4 = Cytochrome P450 3A4 (Homo sapiens, UniProt P08684); assay: Inhibition of CYP3A4; type: ADME
Cytochrome P450 2C9 = Cytochrome P450 2C9 (Homo sapiens, UniProt P11712); assay: Inhibition of CYP2C9; type: ADME
Cytochrome P450 2D6 = Cytochrome P450 2D6 (Homo sapiens, UniProt P10635); assay: Inhibition of CYP2D6; type: ADME
Cytochrome P450 2C19 = Cytochrome P450 2C19 (Homo sapiens, UniProt P33261); assay: Inhibition of CYP2C19; type: ADME
Cytochrome P450 1A2 = biological target: T3, Cytochrome P450 1A2 (Homo sapiens, UniProt P05177); assay: Inhibition of CYP1A2; type: ADME
T3 sequence (P05177 whole entry): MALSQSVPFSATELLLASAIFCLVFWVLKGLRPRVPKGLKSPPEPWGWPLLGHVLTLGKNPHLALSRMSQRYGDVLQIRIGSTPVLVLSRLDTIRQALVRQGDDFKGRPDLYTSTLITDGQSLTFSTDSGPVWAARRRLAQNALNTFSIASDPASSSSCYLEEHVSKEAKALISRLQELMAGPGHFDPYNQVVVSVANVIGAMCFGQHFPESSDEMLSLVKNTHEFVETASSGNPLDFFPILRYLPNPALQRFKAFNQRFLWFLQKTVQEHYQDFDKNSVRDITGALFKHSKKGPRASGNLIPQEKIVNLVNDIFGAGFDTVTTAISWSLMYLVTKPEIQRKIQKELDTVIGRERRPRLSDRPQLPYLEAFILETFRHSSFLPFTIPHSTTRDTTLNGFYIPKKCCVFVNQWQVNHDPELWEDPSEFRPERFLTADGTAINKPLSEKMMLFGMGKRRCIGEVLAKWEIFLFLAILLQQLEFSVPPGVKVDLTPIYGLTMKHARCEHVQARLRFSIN

[2] = Induction of cytochrome P450 at 10 uM; type: ADME
[3] = Plasma protein binding in rat; type: ADME, cell-free; conditions: read-out: PPB
HepG2 = assay: Cytotoxicity against human HepG2 cells; type: cell-based
[4] = biological target: T4, Nuclear receptor subfamily 1 group I member 2 (Homo sapiens, UniProt O75469); assay: Induction of PXR at 100 uM
T4 sequence (O75469 whole entry): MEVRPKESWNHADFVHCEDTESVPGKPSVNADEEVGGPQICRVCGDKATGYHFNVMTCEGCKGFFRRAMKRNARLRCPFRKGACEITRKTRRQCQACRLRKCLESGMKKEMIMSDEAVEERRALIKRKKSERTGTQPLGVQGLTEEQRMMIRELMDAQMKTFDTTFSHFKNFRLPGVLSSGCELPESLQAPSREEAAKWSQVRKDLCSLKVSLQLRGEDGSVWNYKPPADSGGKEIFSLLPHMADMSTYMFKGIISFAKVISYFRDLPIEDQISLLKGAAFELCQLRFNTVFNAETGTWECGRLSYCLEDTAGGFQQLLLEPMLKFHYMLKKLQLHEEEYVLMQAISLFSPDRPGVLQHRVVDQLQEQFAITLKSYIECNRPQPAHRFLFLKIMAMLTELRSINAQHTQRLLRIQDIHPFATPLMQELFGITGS

[5] = Clearance in rat at 1 mg/kg, iv; type: ADME, organism-based; parameters: dose 1 mg/kg, route intravenous; conditions: in vivo
[6] = Volume of distribution at steady state in rat at 1 mg/kg, iv; type: ADME, organism-based; parameters: dose 1 mg/kg, route intravenous; conditions: in vivo, read-out: Vdss
[7] = Cmax in rat at 10 mg/kg, po; type: ADME, organism-based; parameters: dose 10 mg/kg, route oral; conditions: in vivo
[8] = Tmax in rat at 10 mg/kg, po; type: ADME, organism-based; parameters: dose 10 mg/kg, route oral; conditions: in vivo
[9] = AUC (0 to 8 hrs) in rat at 1 mg/kg, iv; type: ADME, organism-based; parameters: time < 8 hr, dose 1 mg/kg, route intravenous; conditions: plasma
[10] = AUC (0 to 8 hrs) in rat at 10 mg/kg, po; type: ADME, organism-based; parameters: time < 8 hr, dose 10 mg/kg, route oral; conditions: plasma
[11] = Elimination half life in rat at 1 mg/kg, iv; type: ADME, organism-based; parameters: dose 1 mg/kg, route intravenous; conditions: in vivo, read-out: beta t1/2 (converted)
[12] = Elimination half life in rat at 10 mg/kg, po; type: ADME, organism-based; parameters: dose 10 mg/kg, route oral; conditions: in vivo, read-out: beta t1/2 (converted)
[13] = Oral bioavailability in rat at 10 mg/kg; type: ADME, organism-based; conditions: in vivo
Rattus norvegicus [14] = assay: Antihypertensive activity in DOCA-salt treated Wistar rat assessed as decrease in systolic blood pressure at 3 mg/kg, po bid administered 29 days after DOCA-salt-challenge for 15 days 12 to 15 hrs post-last dose by plethysmography; type: functional
Rattus norvegicus [15] = assay: Antihypertensive activity in DOCA-salt treated Wistar rat assessed as decrease in systolic blood pressure at 30 mg/kg, po bid administered 29 days after DOCA-salt-challenge for 15 days 12 to 15 hrs post-last dose by plethysmography; type: functional, Artery
[16] = Plasma concentration in Wistar rat at 3 mg/kg, po bid administered for 15 days measured 1 hr post-last dose; type: ADME, organism-based; parameters: dose 3 mg/kg, route oral
[17] = Plasma concentration in Wistar rat at 30 mg/kg, po bid administered for 15 days measured 1 hr post-last dose; type: ADME, organism-based; parameters: dose 30 mg/kg, route oral
Plasma [18] = assay: Plasma concentration in Wistar rat at 3 mg/kg, po bid administered for 15 days measured 12 to 15 hrs post-last dose; type: ADME, organism-based; parameters: dose 3 mg/kg, route oral; conditions: in vivo
Plasma [19] = assay: Plasma concentration in Wistar rat at 30 mg/kg, po bid administered for 15 days measured 12 to 15 hrs post-last dose; type: ADME, organism-based; parameters: dose 30 mg/kg, route oral; conditions: in vivo
Kidney [20] = assay: Drug uptake in Wistar rat kidney at 3 mg/kg, po bid administered for 15 days measured 1 hr post-last dose; type: ADME, organism-based; parameters: dose 3 mg/kg, route oral; conditions: in vivo
Kidney [21] = assay: Drug uptake in Wistar rat kidney at 30 mg/kg, po bid administered for 15 days measured 1 hr post-last dose; type: ADME, organism-based; parameters: dose 30 mg/kg, route oral; conditions: in vivo
Kidney [22] = assay: Drug uptake in Wistar rat kidney at 3 mg/kg, po bid administered for 15 days measured 12 to 15 hrs post-last dose; type: ADME, organism-based; parameters: dose 3 mg/kg, route oral; conditions: in vivo
Kidney [23] = assay: Drug uptake in Wistar rat kidney at 30 mg/kg, po bid administered for 15 days measured 12 to 15 hrs post-last dose; type: ADME, organism-based; parameters: dose 30 mg/kg, route oral; conditions: in vivo
Rattus norvegicus [24] = assay: (§1) Ex-vivo inhibition of Hao2 in DOCA-salt treated Wistar rat kidney using [3H]-2-hydroxyoctanate as substrate assessed as inhibition of [3H]-H2O production at 3 mg/kg, po bid administered 29 days post DOCA-challenge for 15 days measured 1 hr post-last dose by microbeta counting relative to vehicle-treated control; type: functional
Rattus norvegicus [25] = assay: as §1, with “at 30” for “at 3”; type: functional
Rattus norvegicus [26] = assay: as §1, with “12 to 15 hrs” for “1 hr”; type: functional
Rattus norvegicus [27] = assay: as §1, with “at 30” for “at 3”, “measured 12 to 15 hrs” for “measured 1 hr”; type: functional
Rattus norvegicus [28] = assay: Antihypertensive activity in Wistar rat assessed as reduction in DOCA-salt-induced systolic blood pressure elevation at 30 mg/kg, po bid administered on day 14 post DOCA-challenge for 21 days measured 12 to 15 hrs post-last dose by plethysmography relative to vehicle-treated control; type: functional, organism-based; parameters: dose 30 mg/kg; conditions: Artery
Rattus norvegicus [29] = species: Rattus norvegicus; assay: Selectivity ratio of IC50 for rat Hao1 to IC50 for rat Hao2
[30] = Drug metabolism in rat liver microsomes assessed as metabolic rate per 0.125 mg/mL protein; type: ADME, Microsome

Chain of Cytochrome P450 2D6 (P10635 whole entry): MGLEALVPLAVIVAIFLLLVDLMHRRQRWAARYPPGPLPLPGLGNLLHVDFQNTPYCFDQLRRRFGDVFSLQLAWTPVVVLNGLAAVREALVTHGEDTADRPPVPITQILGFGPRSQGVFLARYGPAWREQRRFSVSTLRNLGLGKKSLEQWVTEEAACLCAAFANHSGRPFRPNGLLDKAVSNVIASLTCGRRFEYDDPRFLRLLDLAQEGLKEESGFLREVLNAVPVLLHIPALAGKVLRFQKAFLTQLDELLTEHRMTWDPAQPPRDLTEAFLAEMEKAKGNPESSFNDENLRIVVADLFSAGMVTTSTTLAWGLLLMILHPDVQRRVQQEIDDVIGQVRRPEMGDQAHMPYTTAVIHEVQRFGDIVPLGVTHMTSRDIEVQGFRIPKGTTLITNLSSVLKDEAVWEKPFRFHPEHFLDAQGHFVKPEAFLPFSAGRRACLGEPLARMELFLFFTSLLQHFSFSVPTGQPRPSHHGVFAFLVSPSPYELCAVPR
Chain of Hydroxycarboxylic acid receptor 2 (Homo sapiens) (Q8TDS4 whole entry): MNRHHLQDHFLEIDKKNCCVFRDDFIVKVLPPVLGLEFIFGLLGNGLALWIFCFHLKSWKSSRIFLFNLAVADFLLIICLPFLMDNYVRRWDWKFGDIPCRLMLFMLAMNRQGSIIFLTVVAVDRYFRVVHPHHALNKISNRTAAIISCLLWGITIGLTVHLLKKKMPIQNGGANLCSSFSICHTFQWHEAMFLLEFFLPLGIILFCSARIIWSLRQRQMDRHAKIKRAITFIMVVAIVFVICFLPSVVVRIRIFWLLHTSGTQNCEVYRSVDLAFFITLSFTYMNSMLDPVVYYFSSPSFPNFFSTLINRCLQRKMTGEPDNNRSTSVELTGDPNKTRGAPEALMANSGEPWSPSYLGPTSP
Chain of Cytochrome P450 2C19 (P33261 whole entry): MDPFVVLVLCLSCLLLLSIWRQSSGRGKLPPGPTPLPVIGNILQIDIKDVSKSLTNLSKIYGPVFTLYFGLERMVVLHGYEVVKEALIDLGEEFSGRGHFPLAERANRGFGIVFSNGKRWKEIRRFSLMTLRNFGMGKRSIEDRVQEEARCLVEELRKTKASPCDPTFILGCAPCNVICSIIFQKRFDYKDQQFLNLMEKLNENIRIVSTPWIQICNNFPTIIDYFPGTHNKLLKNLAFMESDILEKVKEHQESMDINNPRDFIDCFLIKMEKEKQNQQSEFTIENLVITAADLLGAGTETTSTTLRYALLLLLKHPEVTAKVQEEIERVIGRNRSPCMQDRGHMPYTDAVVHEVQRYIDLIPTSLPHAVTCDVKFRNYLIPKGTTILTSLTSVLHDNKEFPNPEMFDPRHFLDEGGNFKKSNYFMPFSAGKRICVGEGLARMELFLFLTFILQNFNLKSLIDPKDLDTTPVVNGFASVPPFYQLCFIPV
Chain of Cytochrome P450 2C9 (P11712 whole entry): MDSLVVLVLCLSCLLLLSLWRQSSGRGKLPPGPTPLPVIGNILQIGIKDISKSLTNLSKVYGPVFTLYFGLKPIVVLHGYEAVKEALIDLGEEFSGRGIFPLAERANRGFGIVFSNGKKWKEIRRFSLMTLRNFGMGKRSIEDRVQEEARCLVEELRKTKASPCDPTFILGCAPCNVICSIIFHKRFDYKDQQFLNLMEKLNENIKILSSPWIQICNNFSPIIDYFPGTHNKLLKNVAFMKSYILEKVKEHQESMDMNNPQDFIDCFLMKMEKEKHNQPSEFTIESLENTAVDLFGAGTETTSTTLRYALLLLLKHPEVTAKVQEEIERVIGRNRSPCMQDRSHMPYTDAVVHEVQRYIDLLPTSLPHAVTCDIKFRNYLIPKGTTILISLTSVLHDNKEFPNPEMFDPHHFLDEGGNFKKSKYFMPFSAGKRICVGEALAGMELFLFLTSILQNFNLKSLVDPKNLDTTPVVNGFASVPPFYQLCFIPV
Chain of Cytochrome P450 3A4 (P08684 whole entry): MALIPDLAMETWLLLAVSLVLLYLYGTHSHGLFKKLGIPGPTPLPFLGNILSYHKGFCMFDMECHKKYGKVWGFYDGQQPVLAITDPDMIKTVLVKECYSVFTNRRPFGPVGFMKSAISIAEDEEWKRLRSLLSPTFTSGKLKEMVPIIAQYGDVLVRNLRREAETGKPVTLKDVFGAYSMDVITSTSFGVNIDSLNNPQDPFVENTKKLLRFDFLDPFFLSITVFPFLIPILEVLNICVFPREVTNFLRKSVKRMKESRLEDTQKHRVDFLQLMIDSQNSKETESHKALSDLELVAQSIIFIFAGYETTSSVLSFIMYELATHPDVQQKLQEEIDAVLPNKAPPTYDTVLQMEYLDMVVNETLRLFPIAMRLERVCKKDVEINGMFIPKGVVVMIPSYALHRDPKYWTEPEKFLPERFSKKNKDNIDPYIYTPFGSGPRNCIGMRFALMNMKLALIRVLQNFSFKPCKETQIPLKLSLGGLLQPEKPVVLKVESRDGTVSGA

## Cc1n[nH]c(C(=O)O)c1Cc1cccc(-c2ccc(F)cc2)c1
2-Hydroxyacid oxidase 2
  IC50: 300 nM
2-Hydroxyacid oxidase 1
  IC50: 45.7 µM
[1]
  Activity: inactive
Cytochrome P450 3A4
  IC50: > 10 µM
Cytochrome P450 2C9
  IC50: > 10 µM
Cytochrome P450 2D6
  IC50: > 10 µM
Cytochrome P450 2C19
  IC50: > 10 µM
Cytochrome P450 1A2
  IC50: > 10 µM
[2]
  Activity: Not Active
[3]
  fraction unbound: < 0.01
HepG2
  IC50: > 100 µM
[4]
  Activity: Not Active
[5]
  clearance: 8 mL/min/kg
[6]
  Vd: 0.6 L/kg
[7]
  Cmax: 24 µM
[8]
  Tmax: 15 min
[9]
  AUC(0-t) at 8 h: 7.1 µM·h
[10]
  AUC(0-t) at 8 h: 27 µM·h
[11]
  half-life: 102 min
[12]
  half-life: 90 min
[13]
  bioavailability: 38%
Rattus norvegicus [14]
  Activity: 32 mmHg
Rattus norvegicus [15]
  Activity: 31 mmHg
[16]
  concentration at 1 h: 2200 nM
[17]
  concentration at 1 h: 8 µM
Plasma [18]
  concentration: 200 nM
Plasma [19]
  concentration: 1900 nM
Kidney [20]
  Drug uptake: 10 nmol/g
Kidney [21]
  Drug uptake: 24 nmol/g
Kidney [22]
  Drug uptake: 3 nmol/g
Kidney [23]
  Drug uptake: 7 nmol/g
Rattus norvegicus [24]
  inhibition in vivo at 3 mg/kg: 29%
Rattus norvegicus [25]
  inhibition in vivo at 30 mg/kg: 38%
Rattus norvegicus [26]
  inhibition in vivo at 3 mg/kg: 0%
Rattus norvegicus [27]
  inhibition in vivo at 30 mg/kg: 28%
Rattus norvegicus [28]
  Activity: Active
Rattus norvegicus [29]
  Ratio IC50: 150
[30]
  Drug metabolism: 0.003 nmol/min/mg

## Cc1[nH]nc(C(=O)O)c1CCc1ccc(-c2ccccc2)cc1
2-Hydroxyacid oxidase 2
  IC50: 910 nM

## Cc1[nH]nc(C(=O)O)c1CCc1ccccc1
2-Hydroxyacid oxidase 2
  IC50: 4270 nM
